Values quoted from earlier work, collected in patent publication US20060088612A1, “Composition for treatment of topical infection and methods of making and using same” (priority 2004, published 2006).

System: HSV
Conditions: topical medication for HSV

CCCCCCCCCCCCCCCCCCCCCCO [docosanol]
effectiveness versus placebo: no more effective than a placebo
